Reference: publication PMC5676022, “Pyrrolyl Pyrazoline Carbaldehydes as Enoyl-ACP Reductase Inhibitors: Design, Synthesis and Antitubercular Activity” (The Open Medicinal Chemistry Journal, 2017)
Converted amounts (≈) assume the structure as drawn.

Tests used:
[1] = test system: M. tuberculosis H37Rv; assay: Microplate alamar blue assay (MABA), antitubercular activity; format: cell-based, Mycobacterium tuberculosis; details: 5 days at 37 C, lowest concentration preventing colour change blue to pink; for MIC: Mycobacterium tuberculosis, H37RV, 120 h
[2] = test system: human lung cancer cell line A549; assay: MTT-based cytotoxicity assay; format: cell-based; details: for cytotoxicity towards A549 (in words): A549, up to 100 µg/mL, compared to paclitaxel; for IC50: Homo sapiens, A549, MTT, up to 100 µg/mL, average of three independent experiments
Experimental: Cellular conversion of MTT [3-(4,5-dimethylthiazo-2-yl)-2,5-diphenyl-tetrazolium bromide] into a formazan product was used to estimate cytotoxic activity (IC50) of some of the compounds against cell-line A549 (lung adenocarcinoma) up to concentrations of 100 µg/mL using 5×10^3cells/well in a 96-well flat-bottom micro plate and maintained at 37 °C in 95% humidity and 5% CO2 for overnight using paclitaxel as the positive control.
Certain therapeutic properties are to be determined to examine the antimycobacterial potential of a drug. Toxicity is one of these criteria.

SMILES: O=CN1N=C(c2ccc(-n3cccc3)cc2)CC1c1ccccc1 (stereo not shown) [Compound 4a, 3-(4-(1H-Pyrrol-1-yl) Phenyl)-5-Phenyl-4,5-Dihydro-1H-Pyrazole-1-Carbaldehydes]
- MIC [1]: 100 µg/mL (≈ 317 µM)
- melting point: 178 to 180 °C

SMILES: O=CN1N=C(c2ccc(-n3cccc3)cc2)CC1c1ccc(Cl)cc1 (stereo not shown) [Compound 4b, (4-(1H-Pyrrol-1-yl) Phenyl)-5-(4-Chlorophenyl)-4,5-Dihydro-1H-Pyrazole-1-Carbaldehyde]
- MIC [1]: 12.5 µg/mL (≈ 35.7 µM)
- cytotoxicity towards A549 (in words) [2]: moderate cytotoxicity
- IC50 [2]: 75.6 µg/mL (≈ 216 µM)
- melting point: 168 to 170 °C

SMILES: O=CN1N=C(c2ccc(-n3cccc3)cc2)CC1c1cccc(Cl)c1Cl (stereo not shown) [Compound 4c, (4-(1H-pyrrol-1-yl)phenyl)-5-(2,3-Dichlorophenyl)-4,5-Dihydro-1H-Pyrazole-1-Carbaldehyde]
- MIC [1]: 12.5 µg/mL (≈ 32.5 µM)
- melting point: 163 to 165 °C

SMILES: O=CN1N=C(c2ccc(-n3cccc3)cc2)CC1c1ccc(Cl)cc1Cl (stereo not shown) [Compound 4d, (4-(1H-pyrrol-1-yl)Phenyl)-5-(2,4-Dichlorophenyl)-4,5-Dihydro-1H-Pyrazole-1-Carbaldehyde]
- MIC [1]: 25 µg/mL (≈ 65.1 µM)
- melting point: 228 to 230 °C

SMILES: O=CN1N=C(c2ccc(-n3cccc3)cc2)CC1c1c(Cl)cccc1Cl (stereo not shown) [Compound 4e, (4-(1H-pyrrol-1-yl)Phenyl)-5-(2,6-Dichlorophenyl)-4,5-Dihydro-1H-Pyrazole-1-Carbaldehyde]
- MIC [1]: 25 µg/mL (≈ 65.1 µM)
- melting point: 208 to 210 °C

SMILES: Cc1ccc(C2CC(c3ccc(-n4cccc4)cc3)=NN2C=O)cc1 (stereo not shown) [Compound 4f, (4-(1H-pyrrol-1-yl)Phenyl)-5-(p-Tolyl)-4,5-Dihydro-1H-Pyrazole-1-Carbaldehyde]
- MIC [1]: 25 µg/mL (≈ 75.9 µM)
- melting point: 148 to 150 °C

SMILES: COc1ccc(C2CC(c3ccc(-n4cccc4)cc3)=NN2C=O)cc1 (stereo not shown) [Compound 4g, (4-(1H-pyrrol-1-yl)phenyl)-5-(4-Methoxyphenyl)-4,5-Dihydro-1H-Pyrazole-1-Carbaldehyde]
- MIC values M. tuberculosis H37Rv [1]: 6.25 µg/mL (≈ 18.1 µM)
- MIC [1]: 6.25 µg/mL (≈ 18.1 µM)
- melting point: 112 to 114 °C

SMILES: COc1cccc(C2CC(c3ccc(-n4cccc4)cc3)=NN2C=O)c1 (stereo not shown) [Compound 4h, (4-(1H-Pyrrol-1-yl)Phenyl)-5-(3-Methoxyphenyl)-4,5-Dihydro-1H-Pyrazole-1-Carbaldehyde]
- MIC values M. tuberculosis H37Rv [1]: 6.25 µg/mL (≈ 18.1 µM)
- MIC [1]: 6.25 µg/mL (≈ 18.1 µM)
- cytotoxicity towards A549 (in words) [2]: moderate cytotoxicity
- IC50 [2]: 76.5 µg/mL (≈ 222 µM)
- melting point: 158 to 160 °C

SMILES: COc1ccc(C2CC(c3ccc(-n4cccc4)cc3)=NN2C=O)c(OC)c1 (stereo not shown) [Compound 4i, (4-(1H-Pyrrol-1-yl)Phenyl)-5-(2,4-Dimethoxyphenyl)-4,5-Dihydro-1H-Pyrazole-1-Carbaldehyde]
- MIC values M. tuberculosis H37Rv [1]: 3.125 µg/mL (≈ 8.32 µM)
- MIC [1]: 3.12 µg/mL (≈ 8.32 µM)
- cytotoxicity towards A549 (in words) [2]: moderate cytotoxicity
- IC50 [2]: 73.3 µg/mL (≈ 195 µM)
- melting point: 160 to 162 °C

SMILES: COc1ccc(C2CC(c3ccc(-n4cccc4)cc3)=NN2C=O)cc1OC (stereo not shown) [Compound 4j, (4-(1H-Pyrrol-1-yl) Phenyl)-5-(3,4-Dimethoxyphenyl)-4,5-Dihydro-1H-Pyrazole-1-Carbaldehyde]
- MIC [1]: 12.5 µg/mL (≈ 33.3 µM)
- cytotoxicity towards A549 (in words) [2]: moderate cytotoxicity
- IC50 [2]: 70.4 µg/mL (≈ 187 µM)
- melting point: 133 to 135 °C

SMILES: O=CN1N=C(c2ccc(-n3cccc3)cc2)CC1c1ccc(F)cc1 (stereo not shown) [Compound 4k, (4-(1H-Pyrrol-1-yl)phenyl)-5-(4-Fluorophenyl)-4,5-Dihydro-1H-Pyrazole-1-Carbaldehyde]
- MIC [1]: 12.5 µg/mL (≈ 37.5 µM)

SMILES: CC(C)c1ccc(C2CC(c3ccc(-n4cccc4)cc3)=NN2C=O)cc1 (stereo not shown) [Compound 4l, (4-(1H-Pyrrol-1-yl)Phenyl)-5-(4-Isopropylphenyl)-4,5-Dihydro-1H-Pyrazole-1-Carbaldehyde]
- MIC [1]: 100 µg/mL (≈ 280 µM)
- cytotoxicity towards A549 (in words) [2]: moderate cytotoxicity
- IC50 [2]: 71.1 µg/mL (≈ 199 µM)
- melting point: 140 to 142 °C

SMILES: O=CN1N=C(c2ccc(-n3cccc3)cc2)CC1c1cccc(Br)c1 (stereo not shown) [Compound 4m, (4-(1H-Pyrrol-1-yl)Phenyl)-5-(3-Bromophenyl)-4,5-Dihydro-1H-Pyrazole-1-Carbaldehyde]
- MIC [1]: 12.5 µg/mL (≈ 31.7 µM)
- cytotoxicity towards A549 (in words) [2]: moderate cytotoxicity
- IC50 [2]: 76 µg/mL (≈ 193 µM)
- melting point: 168 to 170 °C

SMILES: O=CN1N=C(c2ccc(-n3cccc3)cc2)CC1c1cccc(Oc2ccccc2)c1 (stereo not shown) [Compound 4n, (4-(1H-pyrrol-1-yl)Phenyl)-5-(3-Phenoxyphenyl)-4,5-Dihydro-1H-Pyrazole-1-Carbaldehyde]
- MIC [1]: 12.5 µg/mL (≈ 30.7 µM)
- cytotoxicity towards A549 (in words) [2]: moderate cytotoxicity
- IC50 [2]: 72.9 µg/mL (≈ 179 µM)
- melting point: 128 to 130 °C

SMILES: O=CN1N=C(c2ccc(-n3cccc3)cc2)CC1c1ccco1 (stereo not shown) [Compound 4o, (4-(1H-Pyrrol-1-yl)phenyl)-5-(Furan-2-yl)-4,5-Dihydro-1H-pyrazole-1-Carbaldehyde]
- MIC [1]: 50 µg/mL (≈ 164 µM)
- melting point: 152 to 154 °C

SMILES: CC(=O)O[C@H]1C(=O)[C@@]2(C)[C@H]([C@H](OC(=O)c3ccccc3)[C@]3(O)C[C@H](OC(=O)[C@H](O)[C@@H](NC(=O)c4ccccc4)c4ccccc4)C(C)=C1C3(C)C)[C@]1(OC(C)=O)CO[C@@H]1C[C@@H]2O [paclitaxel, reference compound]
- IC50 [2]: 47.6 µg/mL (≈ 55.8 µM)

SMILES: NC(=O)c1cnccn1 [pyrazinamide, reference compound]
- MIC [1]: 3.12 µg/mL (≈ 25.4 µM)

SMILES: [H]/N=C(/N)N[C@H]1[C@H](O)[C@@H](O)[C@H](O[C@@H]2O[C@@H](C)[C@](O)(C=O)[C@H]2O[C@@H]2O[C@@H](CO)[C@H](O)[C@@H](O)[C@@H]2NC)[C@@H](N/C(N)=N\[H])[C@@H]1O [streptomycin, reference compound]
- MIC [1]: 6.25 µg/mL (≈ 10.7 µM)
